Common to all, as to test: inhibition of tumour cell growth, NCI panel, 48 h
In assay [1] the test system is NCI-H226 lung.
For assay [2], the system named is M14 melanoma.
The test system of assay [3] is SNB-19 CNS.
In assay [4] the test system is NCI-H23 lung.
In assay [5] the test system is EKVX NSCLC.
For assay [6], the system named is T-47D breast.
For assay [7], the system named is HOP-62 NSCLC.
The test system of assay [8] is HS 578T breast.

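Cells were grown in 96-well plates and exposed to each compound for 48 hours at five concentrations; endpoints were interpolated linearly between bracketing concentrations, or set to the highest concentration if not reached. The concentration for 50% growth inhibition is given as GI50. TGI denotes the concentration required for complete inhibition of growth.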

With `C(=Nc1nc(SCc2ccccc2)nc2[nH]ncc12)c1cccs1`, the GI50 was 45.7 µM in assay [1]; 34.7 µM in assay [2]; 26.4 µM in assay [3]; 66.4 µM in assay [4]; 34.5 µM in assay [5]; 21.9 µM in assay [6]. Also, the GI50 in assay [7] was above 100 µM. The TGI is above 100 µM in assay [1]; above 100 µM in assay [2]; above 100 µM in assay [3]; above 100 µM in assay [4]; above 100 µM in assay [5]; 52.8 µM in assay [6]. In assay [7], this compound came in with a TGI above 100 µM.

As for `CC(=O)NC1C(O[C@H]2C[C@H]3[C@@H]4CC=C5C[C@@H](O)CC[C@]5(C)[C@H]4CC[C@]3(C)[C@H]2[C@H](C)C(=O)CCC(C)C)OCC(O)C1O` (some centres undefined), the GI50 in assay [2] is 0.732 µM; in assay [8], 0.88 µM; in assay [3], 3.31 µM; in assay [4], 4.59 µM; in assay [5], 1.97 µM; in assay [6], 2.28 µM. The GI50 in assay [7] was 2.18 µM. The TGI stood at 1.57 µM in assay [2]; 4.09 µM in assay [8]; 11 µM in assay [3]; 18.5 µM in assay [4]; 9.37 µM in assay [5]; 30.9 µM in assay [6]. This compound also returned a TGI in assay [7] of 8.31 µM.

`CC(=O)[CH-]C(=O)c1ccccc1.[C-]#[O+].[C-]#[O+].[Ir]`: the GI50 in assay [1], in assay [3], in assay [4] and in assay [5] was above 100 µM in each case. The TGI in assay [1], in assay [3], in assay [4] and in assay [5] was above 100 µM in each case.

`COc1cc(-c2nccc3[nH]c(-c4ccc5cc[nH]c5c4)nc23)cc(OC)c1OC`: the GI50 in assay [8] is below 0.01 µM; in assay [3] it was below 0.01 µM; in assay [4], below 0.01 µM; in assay [6] it was 1.26 µM; in assay [7], below 0.01 µM. In addition, the TGI in assay [8] was 10.3 µM; in assay [3], 15.8 µM; in assay [4] it was 4.2 µM; in assay [6], 4.38 µM; in assay [7], 2.67 µM.

Consider `COc1ccc(-c2nc3ccc(Cc4ccc5nc(-c6ccc(OC)cc6)[nH]c5c4)cc3[nH]2)cc1`, for which the GI50 was 0.475 µM in assay [1]; below 0.01 µM in assay [2]; 0.0334 µM in assay [8]; 0.0469 µM in assay [3]; 0.0516 µM in assay [4]; 0.0291 µM in assay [7]. In addition, the TGI in assay [1] worked out at 2.56 µM; in assay [2] it was 0.111 µM; in assay [8] it was 2.52 µM; in assay [3], 5.8 µM; in assay [4], 2.81 µM; in assay [7], 2.07 µM.

On to `Cc1cc(Cl)nc(N(CCNc2ccnc3cc(Cl)ccc23)Cc2ccco2)n1`, for which the GI50 in assay [2] is 1.88 µM; in assay [8], 2.27 µM; in assay [3] it was 3.54 µM; in assay [4] it was 2.57 µM; in assay [5], 2.68 µM; in assay [6] it was 1.66 µM. Besides, the GI50 in assay [7] was 2.04 µM. The TGI in assay [2] was determined as 3.63 µM; in assay [8], 6.32 µM; in assay [3] it was 16.2 µM; in assay [4] it was 9.65 µM; in assay [5], 12.1 µM; in assay [6], 3.61 µM. Besides, the TGI in assay [7] came out at 4.79 µM.

Regarding `S=C1SCN(Cc2ccccc2)CN1Cc1ccco1`, the GI50 in assay [2] was 4.04 µM; in assay [8] it was 19.7 µM; in assay [3] it was 35.5 µM; in assay [4], 5.21 µM; in assay [6], 3.41 µM; in assay [7], 5.33 µM. In addition, the TGI in assay [2] is 19.3 µM; in assay [8] it was 81.5 µM; in assay [3], above 100 µM; in assay [4] it was 34.9 µM; in assay [6], 21.9 µM; in assay [7] it was 26.8 µM.

For `CCc1ccc(Nc2cc(C)c3ccc(O)cc3n2)cc1`, the GI50 in assay [1] is 19.8 µM; in assay [2], 5.42 µM; in assay [8], 10.3 µM; in assay [3] it was 13 µM; in assay [4], 3.34 µM; in assay [6] it was 4.83 µM. In addition, the GI50 in assay [7] was 11.5 µM. The TGI was found to be 54.3 µM in assay [1]; 18.1 µM in assay [2]; 31.8 µM in assay [8]; 32.1 µM in assay [3]; 15.6 µM in assay [4]; 23.3 µM in assay [6]. This compound also returned a TGI in assay [7] of 24.3 µM.

Regarding `C#Cc1ccc(-n2c(/C=C/c3ccc(O)cc3)nc3ncccc3c2=O)cc1`, the GI50 in assay [1] was 2.58 µM; in assay [2] it was 2.7 µM; in assay [8] it was 3.24 µM; in assay [3] it was 6.26 µM; in assay [4], 5.52 µM; in assay [6] it was 4.63 µM. The GI50 in assay [7] was 5.66 µM. The TGI in assay [1] is 13.1 µM; in assay [2] it was 8.08 µM; in assay [8] it was 30 µM; in assay [3] it was above 100 µM; in assay [4], above 100 µM; in assay [6], above 100 µM. Also, the TGI in assay [7] came to 55.7 µM.

Turning to `COc1ccccc1CNCCN1C(=O)c2ccc3c4c(ccc(c24)C1=O)C(=O)N(CCNCc1ccccc1OC)C3=O`, the GI50 in assay [1] was 1.26 µM; in assay [2], 0.189 µM; in assay [8] it was 1.17 µM; in assay [4], 0.19 µM; in assay [6], 0.481 µM; in assay [7] it was 0.221 µM. Also, the TGI in assay [1] amounted to 2.77 µM; in assay [2], 0.378 µM; in assay [8], 4.88 µM; in assay [4], 0.394 µM; in assay [6], 1.27 µM; in assay [7], 0.603 µM.

In the case of `O=C(c1cccs1)c1c(C(F)(F)F)n([O-])c2cc(Cl)c(Cl)cc2[n+]1=O`, the GI50 in assay [1] is 1.96 µM; in assay [2], 0.906 µM; in assay [8], 2.02 µM; in assay [4], 0.919 µM; in assay [5], 2.11 µM; in assay [6], 2.18 µM. In addition, in assay [7], the GI50 is 1.77 µM. Further, the TGI turned out to be 3.79 µM in assay [1]; 2.45 µM in assay [2]; 4.11 µM in assay [8]; 2.37 µM in assay [4]; 4.04 µM in assay [5]; 4.94 µM in assay [6]. Moreover, the TGI in assay [7] turned out to be 3.46 µM.

In the case of `COc1ccccc1Oc1nccc(-c2c(-c3ccc(F)cc3)ncn2C2CCNCC2)n1`, the GI50 was above 19.1 µM in assay [2]; above 6.75 µM in assay [8]; above 25 µM in assay [3]; above 25 µM in assay [5]; above 25 µM in assay [6]; above 25 µM in assay [7]. For the same compound, the TGI in assay [2] was above 25 µM; in assay [8], above 23 µM; in assay [3], above 25 µM; in assay [5], above 25 µM; in assay [6], above 25 µM; in assay [7], above 25 µM.

As to `CNCc1ccc(-c2cc(-c3nc(-c4ccc(S(=O)(=O)C(C)C)cc4)cnc3N)on2)cc1`, the GI50 in assay [1] was 18.8 µM; in assay [2], 1.18 µM; in assay [8] it was 4.61 µM; in assay [3], 12.1 µM; in assay [4] it was 0.676 µM; in assay [6] it was 15.7 µM. Also, the GI50 in assay [7] was 4.56 µM. Besides, the TGI in assay [1] was found to be 44.1 µM; in assay [2] it was 2.6 µM; in assay [8], 38 µM; in assay [3] it was 36.8 µM; in assay [4] it was 28.3 µM; in assay [6] it was 37.8 µM. In assay [7], the TGI came to 22.6 µM.

Consider `COCCOC1=C(Cl)C(=O)c2ccccc2C1=O`, for which the GI50 in assay [1] is 4.18 µM; in assay [8], 2.94 µM; in assay [3], 4.55 µM; in assay [4], 3.24 µM; in assay [5], 3.51 µM; in assay [7], 3.92 µM. Besides, the TGI turned out to be 15.8 µM in assay [1]; 12.7 µM in assay [8]; 16.8 µM in assay [3]; 13.5 µM in assay [4]; 15.8 µM in assay [5]; 14.8 µM in assay [7].

In the case of `Cc1ccc(NC(=O)c2cc(S(=O)(=O)Nc3nnc(-c4ccccc4)c(-c4ccccc4)n3)c(SCc3ccccc3)cc2Cl)cc1`, the GI50 is 21.4 µM in assay [1]; 34.8 µM in assay [2]; 25.4 µM in assay [8]; 20.4 µM in assay [3]; 18.1 µM in assay [4]; 18 µM in assay [5]. Moreover, in assay [7], the GI50 is 36.1 µM. Moreover, the TGI in assay [1] was 56 µM; in assay [2] it was above 100 µM; in assay [8] it was 57.4 µM; in assay [3], 57.1 µM; in assay [4], 34.2 µM; in assay [5] it was 37.6 µM. Also, in assay [7], the TGI was above 100 µM.

For `COCCN(Cc1ccc(F)cc1)c1ccc(CO)c(Cl)c1`, the GI50 in assay [1] was 0.152 µM; in assay [2], 38.9 µM; in assay [8] it was 60.9 µM; in assay [3], 33.4 µM; in assay [4] it was 17.2 µM; in assay [6], 0.748 µM. The GI50 in assay [7] is 13.5 µM. In addition, the TGI was 0.353 µM in assay [1]; above 100 µM in assay [2]; above 100 µM in assay [8]; above 100 µM in assay [3]; above 100 µM in assay [4]; 7.04 µM in assay [6]. The TGI in assay [7] was above 100 µM.

(Values after PubChem BioAssay (NCI).)
